Measurements as given in the NIST ThermoML archive (doi:10.1021/je400722h).

Experiment: excess molar enthalpy (molar enthalpy of mixing); xn = mol fraction of the nth substance listed
Conditions: 308.15 K, 101 kPa, Liquid, Power-compensation calorimetry

Cc1ccccc1Cl [2-chlorotoluene] + C1CCOCC1
Conditions	excess molar enthalpy [kcal/mol]
x1 = 0.0994	-0.0166
x1 = 0.1367	-0.0226
x1 = 0.1982	-0.0304
x1 = 0.2467	-0.0368
x1 = 0.3018	-0.0425
x1 = 0.3537	-0.0459
x1 = 0.3986	-0.04876
x1 = 0.4367	-0.05115
x1 = 0.4825	-0.0526
x1 = 0.5267	-0.0526
x1 = 0.5894	-0.05115
x1 = 0.6276	-0.05043
x1 = 0.6934	-0.0457
x1 = 0.7368	-0.0418
x1 = 0.7864	-0.037

Cc1ccccc1Cl [2-chlorotoluene] + C1COCCO1
Conditions	excess molar enthalpy [kcal/mol]
x1 = 0.0998	0.0387
x1 = 0.1643	0.0583
x1 = 0.2095	0.0676
x1 = 0.2498	0.07529
x1 = 0.3012	0.0827
x1 = 0.3567	0.0872
x1 = 0.4098	0.088
x1 = 0.4597	0.0877
x1 = 0.5088	0.0851
x1 = 0.5563	0.08078
x1 = 0.6019	0.07529
x1 = 0.6532	0.0672
x1 = 0.7067	0.0588
x1 = 0.7538	0.04924
x1 = 0.8093	0.0382
x1 = 0.8498	0.0299
x1 = 0.8932	0.0209
x1 = 0.9265	0.0144

Cc1ccccc1Cl [2-chlorotoluene] + C1COCO1
Conditions	excess molar enthalpy [kcal/mol]
x1 = 0.0945	0.0361
x1 = 0.1378	0.05043
x1 = 0.1987	0.066
x1 = 0.2396	0.07481
x1 = 0.2914	0.0841
x1 = 0.3467	0.0899
x1 = 0.3962	0.0937
x1 = 0.4532	0.0956
x1 = 0.4991	0.0939
x1 = 0.5432	0.0915
x1 = 0.5899	0.088
x1 = 0.6329	0.08198
x1 = 0.6923	0.07337
x1 = 0.7321	0.065
x1 = 0.8021	0.05043
x1 = 0.8492	0.0392
x1 = 0.8912	0.0292
x1 = 0.9319	0.0186
